# Results from ChEMBL document CHEMBL1132713, “Emerging molecular approaches to pain therapy” (J Med Chem, 1999).
# Legend:
# Proteasome = assay: Inhibitory activity against 26S proteasome degradation of IkB; assay type: subcellular
# [1] = target: Delta-type opioid receptor (Homo sapiens, UniProt P41143); assay: Opioid receptor delta 1 agonist activity was determined; assay type: functional
# Delta-type opioid receptor, sequence (P41143 whole entry): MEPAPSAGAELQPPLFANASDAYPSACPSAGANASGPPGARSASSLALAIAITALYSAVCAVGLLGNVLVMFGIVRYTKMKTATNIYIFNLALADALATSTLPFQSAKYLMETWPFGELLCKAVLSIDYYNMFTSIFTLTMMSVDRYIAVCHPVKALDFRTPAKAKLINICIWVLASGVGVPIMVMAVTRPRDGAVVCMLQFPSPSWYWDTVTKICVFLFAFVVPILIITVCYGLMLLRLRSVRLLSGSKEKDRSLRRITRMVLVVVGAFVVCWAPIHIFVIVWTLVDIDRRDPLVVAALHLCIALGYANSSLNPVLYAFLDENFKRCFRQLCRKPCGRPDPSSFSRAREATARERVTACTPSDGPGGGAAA
SMILES,Ki (Proteasome),Ki [1]
CC(C)C[C@H](NC(=O)[C@@H](Cc1ccccc1)NC(=O)c1ccccc1)B(O)O,0.6 nM,
COc1ccc2c3c1OC1C4NC(C(=O)OCC(C)C)=C(C)C4CC4C(C2)N(C)CCC341 (configuration not stated),,4.8 nM
